Literature values as cited in paper PMC7465391, “1,4-Disubstituted 1,2,3-Triazoles as Amide Bond Surrogates for the Stabilisation of Linear Peptides with Biological Activity” (Molecules, 2020).
Like-named read-outs stand apart in the source and are kept apart here.

Experiments:
[1] = target: cathepsin K
Excerpt: (§1) Table 7 Sequences of CatS1–2 and CatK1–2 and their reported biological properties. | column: Ki for CatK, pH 5.5 [nM] ^b || The Lalmanach group explored the stabilisation of peptidic inhibitors for cathepsin K and S [99]. These two proteins are cysteine proteases normally present in lysosomes and share a high homology. When found in the extracellular matrix, these enzymes are often overexpressed and dysregulated, making them innovative targets for new therapies for a range of medical conditions. Cathepsin K is considered as a target involved in osteoporosis whereas cathepsin S has been identified to play a role in autoimmune diseases and neuropathic pain [100, 101]. One strategy to identify inhibitors for prot ... || Another set of investigated peptidomimetics was based on a bradykinin-derived substrate, previously reported to be degraded by cathepsin K [103].

[2] = target: cathepsin L
Excerpt: as §1, with “CatL,” for “CatK,”

| Ki ([1]; pH 5.5, 37 °C, substrate Z-Phe-Arg-AMC, mean ± SEM of three experiments, read-out: Ki for CatK, pH 5.5) [µM] | Ki ([2]; reversible inhibition, read-out: Ki cathepsin L) [µM] | Ki ([1]; reversible inhibition, read-out: Ki cathepsin K) [µM] | Ki ([2]; pH 5.5, 37 °C, substrate Z-Phe-Arg-AMC, mean ± SEM of three experiments, read-out: Ki for CatL, pH 5.5) [µM] | Substance |
| --- | --- | --- | --- | --- |
| 10 | 30 | – | – | Ac-Gly-Arg-Trp-His-Pro-Met-GlyΨ[Tz]Ala-Pro-Trp-Glu-D-Ala-D-Arg-NH2 [CatS1] |
| – | – | 0.8 | 22 | Abz-Arg-Pro-Pro-GlyΨ[Tz]Phe-Ser-Pro-Phe-Arg-Tyr(3-NO2)-NH2 [CatK1, triazolo-peptidomimetic of a bradykinin-derived cathepsin K substrate] |
